Where no end group is shown, it is not given here.
Assay: Solubility and behaviour in water
Format: physicochemical

- behaviour of solution in pure water (solubilised in pure water, pH not lowered): tends to spontaneously aggregate
- solubility in water (water, no solvent pre-treatment, solution clear and transparent): freely soluble in water
Substance: GNNQQNY [GNNQQNY]

From article doi:10.1101/2022.01.01.474692v1 (bioRxiv, 2022)
